The test system of data set [1] is pentagastrin-stimulated acid secretion of the perused rat stomach. Briefly: Secretion-inhibiting action on the perfused rat stomach (pentagastrin-stimulated, in vivo). The following applies: anesthetized CD rat, dose 3 μmol/kg i.v.; for inhibition at 3 µmol/kg: iv. The text has this: Testing of the Secretion-Inhibiting Action on the Perfused Rat Stomach
The abdomen of anesthetized rats (CD rat, female, 200-250 g; […] i.m. urethane) was opened after tracheotomy by means of a median upper abdominal incision and a PYC catheter was fixed transorally in the esophagus and another via the pylorus such that the ends of the tube just projected into the gastric lumen. The catheter leading from the pylorus led outwards into the right abdominal wall through a side opening.
After thorough rinsing (about 50-100 ml), warm physiological NaCl solution at 37° C. was continuously passed through the stomach (0.5 ml/min. pH 6.8-6.9; Braun-Unita I). The pH (pH meter 632, glass electrode EA 147; φ=5 mm, Metrohm) and, by titration with a freshly prepared 0.01 N NaOH solution to pH 7 (Dosimat 665 Metrohm), the secreted HCl were determined in the effluent in each case collected at an interval of 15 minutes.
The gastric secretion was stimulated by continuous infusion of 1 μg/kg (=1.65 ml/h) of I.v. pentagastrin (left femoral vein) about 30 min after the end of the operation (i.e after determination of 2 preliminary fractions). The substances to be tested were administered intravenously in 1 ml/kg liquid volumes 60 min after the start of the pentagastrin continuous infusion.
The body temperature of the animals was kept at a constant 37.8-38° C. by infrared irradiation and heat pads (automatic, stepless control by means of a rectal temperature sensor).

As a reminder, the melting point is the temperature of the solid-liquid transition. In turn, `CO[C@H]1c2ccn3c(C)c(C)nc3c2N[C@@H](c2ccccc2)[C@@H]1O` [Example 1B, (7S, 8S, 9S)-2,3-Dimethyl-8-hydroxy-7-methoxy-9-phenyl-7,8,9,10-tetrahydro-imidazo[1,2-h]-[1,7]naphthyridine] displayed a melting point of 161 to 162 °C. As for `CO[C@@H]1c2ccn3c(C)c(C)nc3c2N[C@H](c2ccccc2)[C@H]1O` [Example 1], the “Inhibition of acid secretion” value in data set [1] is on record as 100%. On the same count and under the same terms, with `CO[C@H]1c2ccn3c(C)c(C)nc3c2N[C@H](c2ccccc2)[C@H]1O` [Example 2, (7S, 8R, 9R)-2,3-Dimethyl-8-hydroxy-7-methoxy-9-phenyl-7,8,9,10-tetrahydro-imidazo[1,2-h]-[1,7]naphythyridine] the figure was 100%. Molecule `CO[C@@H]1c2ccn3c(C)c(C)nc3c2N[C@@H](c2ccccc2)[C@@H]1O` [Example 2B, (7R, 8S, 9S)-2,3-Dimethyl-8-hydroxy-7-methoxy-9-phenyl-7,8,9,10-tetrahydro-imidazo[1,2-h]-[1,7]naphthyridine] came in with a melting point of 171 to 172 °C.

For orientation: inhibition means the percentage by which the read-out fell short of the control. Low values mean little suppression, high ones strong suppression. `CCO[C@@H]1c2ccn3c(C)c(C)nc3c2N[C@H](c2ccccc2)[C@H]1O` [Example 3, (7R, 8R, 9R)-2,3-Dimethyl-7-ethoxy-8-hydroxy-9-phenyl-7,8,9,10-tetrahydro-imidazo[1,2-h]-[1,7]naphthyridine]: the melting point is 188 to 190 °C. For the same molecule, the inhibition at 3 µmol/kg in data set [1] is 100%. For `CCO[C@@H]1c2ccn3c(C)c(C)nc3c2N[C@H](c2ccccc2)[C@H]1O` [Example 4, (7R, 8R, 9R)-2,3Dimethyl-7-ethoxy-8-hydroxy-phenyl-7,8,9,10-tetrahydro-imidazo[1,2-h]-[1,7]naphythryridine], in data set [1], the “Inhibition of acid secretion” value is 100%.

As for `COCCO[C@@H]1c2ccn3c(C)c(C)nc3c2N[C@H](c2ccccc2)[C@H]1O` [Example 5, (7R, 8R, 9R)-2,3-Dimethyl-8-hydroxy-7-(2-methoxyethoxy)-9-phenyl-7,8,9,10-tetrahydro-imidazo[1,2-h][1,7]naphthyridine], the inhibition at 3 µmol/kg in data set [1] worked out at 100%. For the molecule `COCCO[C@H]1c2ccn3c(C)c(C)nc3c2N[C@H](c2ccccc2)[C@H]1O` [Example 6, (7S, 8R, 9R)-2,3-Dimethyl-8-hydroxy-7-(2-methoxyethoxy)-9-phenyl-7,8,9,10-tetrahydro-imiazo[1,2-h][1,7]naphthyridine], the “Inhibition of acid secretion” value in data set [1] was 100%. Molecule `Cc1nc2c3c(ccn2c1C)[C@H](OC(C)C)[C@H](O)[C@@H](c1ccccc1)N3` [Example 7, (7S, 8R, 9R)-2,3-Dimethyl-8-hydroxy-9-phenyl-7-(2-propoxy)-7,8,9,10-tetrahydro-imidazo[1,2-h][1,7]naphthyridine] yielded a melting point of 168 to 169 °C. In addition, the inhibition at 3 µmol/kg in data set [1] was found to be 100%. As to `CO[C@@H]1[C@@H](c2ccccc2)Nc2c(ccn3c(C)c(C)nc23)[C@H]1OC` [Example 8], the “Inhibition of acid secretion” value in data set [1] amounted to 100%.

These data come from US6696460B2, “Tetrahydropyridoethers” (Atlanta Pharma AG, priority 1998, dated 2004).
